Experimental data as given in patent US5254577A, “Aminomethyloxooxazolidinyl arylbenzene derivatives useful as antibacterial agents” (The Du Pont Merck Pharmaceutical Company, priority 1992, dated 1993).
Values after ≈ are worked out from the molar mass of the structure shown. Like-named read-outs stand apart in the source and are kept apart here.

Assays:
[1] = tested on: Staphylococcus aureus; assay: In vitro broth microdilution, 24-hour minimal inhibitory concentration (MIC); assay type: cell-based; conditions: Mueller-Hinton broth; for MIC: read-out: Minimum Inhibitory Concentration
Source text: (§1) A standard microdilution method (National Committee for Clinical Standards. Tentative standard M7-T. Standard methods for dilution antimicrobial susceptibility tests for bacteria that grow aerobically. National Committee for Clinical Laboratory Standards, Villanova, Pa. 1982) with Mueller-Hinton broth is used to determine the 24-hour minimal inhibitory concentrations (MIC's) for test strains of Staphylococcus aureus and Escherichia coli.

[2] = tested on: Escherichia coli; assay: as above; assay type: cell-based; conditions: Mueller-Hinton broth, read-out: Minimum Inhibitory Concentration
Source text: as §1

[3] = tested on: Staphylococcus aureus; assay: In vivo activity against Staphylococcus aureus in an acute lethal mouse model; conditions: mice infected intraperitoneally, dosed 1 h and 4 h post-infection, survivors on seventh day
Description: The in vivo potency of these compounds is exemplified by the data summarized in Table X. Determinations of in vivo efficacy are performed by inoculating mice intraperitoneally with cultures of the infecting organism diluted to produce 100% mortality in control animals within twenty-four hours. The culture of S. aureus used to infect the animals was diluted to the required bacterial density using 5% aqueous hog gastric mucin. The compounds are dissolved or suspended in 0.25% aqueous Methocel® (Methocel®: Hydroxypropyl Methylcullulose, E15 Premium, Dow Chemical Company) for oral administration or sterile distilled water containing 5% dimethylsulfoxide (Fisher Scientific Company, Fairlawn, N.J.) for subcutaneous administration. The mice are dosed at one hour and at four hours post-infection. Mortality is recorded daily until test determination seven days post infection. The number of survivors in each treatment group on the seventh day after infection is used in the calculation of the ED50, the dose of compound that protects 50% of the mice (Litchfield,J. T. and Wildoxon. A simulated method for evaluating dose-effect experiments. J. Pharmacol Exp. Ther., 98:99-113, 1949).

[4] = Staphylococcus aureus, 168 h, Oral Administration, read-out: ED50
[5] = Staphylococcus aureus, sc, 168 h, Subcutaneous Administration, read-out: ED50

SMILES: CC(=O)NC[C@H]1CN(c2ccc(-c3cncc4ccccc34)cc2)C(=O)O1 [Example 92]
- MIC [1]: 2 µg/mL (≈ 5.53 µM)
- MIC [2]: > 128 µg/mL

SMILES: CSc1ccc(-c2ccc(N3C[C@H](CNC(C)=O)OC3=O)cc2)cc1 [Example 67, (l)-N-[3-(4-(4'-methylthiophenyl)phenyl)-2-oxooxazolidin-5-ylmethyl]acetamide]
- ED50 [3, 4]: 4.5 mg/kg
- ED50 [3, 5]: 30 mg/kg
- MIC [1]: 0.25 µg/mL (≈ 0.701 µM)
- MIC [2]: > 128 µg/mL

SMILES: CCc1ccc(-c2ccc(N3C[C@H](CNC(C)=O)OC3=O)cc2)cc1 [Example 114, (l)-N-[3-(4-(4'-Ethylphenyl)phenyl)-2-oxooxazolidin-5-ylmethyl]acetamide]
- ED50 [3, 4]: 8.1 mg/kg
- ED50 [3, 5]: > 100 mg/kg
- MIC [1]: 0.5 µg/mL (≈ 1.48 µM)
- MIC [2]: > 128 µg/mL

SMILES: CC(=O)NC[C@H]1CN(c2ccc(-c3ccc(C(C)=NN4CCN(C)CC4)cc3)cc2)C(=O)O1 [Example 25, (l)-N-[3-(4-(4'-Acetylphenyl)phenyl)-2-oxooxazolidin-5-ylmethyl]acetamide 4-Methylpiperazinylhydrazone]
- ED50 [3, 4]: 13.9 mg/kg
- ED50 [3, 5]: 5.8 mg/kg
- MIC [1]: 2 µg/mL (≈ 4.45 µM)
- MIC [2]: > 128 µg/mL

SMILES: CC(=O)NC[C@H]1CN(c2ccc(-c3ccc(C=O)cc3)cc2)C(=O)O1 [Example 21, (l)-N-[3-(4-(4'-Formylphenyl)phenyl)-2-oxooxazolidin-5-ylmethyl]acetamide]
- ED50 [3, 4]: 44.7 mg/kg
- ED50 [3, 5]: > 90 mg/kg
- MIC [1]: < 0.13 µg/mL
- MIC [2]: > 128 µg/mL

SMILES: CCc1cccc(-c2ccc(N3C[C@H](CNC(C)=O)OC3=O)cc2)c1 [Example 70]
- ED50 [3, 4]: 17 mg/kg
- ED50 [3, 5]: 10 mg/kg
- MIC [1]: 2 µg/mL (≈ 5.91 µM)
- MIC [2]: > 128 µg/mL

SMILES: COc1ccc(-c2ccc(N3C[C@H](CNC(C)=O)OC3=O)cc2)cc1 [Example 75]
- MIC [1]: < 0.13 µg/mL
- MIC [2]: > 128 µg/mL

SMILES: CC(=O)NC[C@H]1CN(c2ccc(-c3cccnc3)cc2)C(=O)O1 [Example 88]
- ED50 [3, 4]: 1.6 mg/kg
- ED50 [3, 5]: 0.5 mg/kg
- MIC [1]: < 0.13 µg/mL
- MIC [2]: > 128 µg/mL

SMILES: CC(=O)NC[C@H]1CN(c2ccc(-c3ccc(C(O)CCN(C)C)cc3)cc2)C(=O)O1 (single isomer, unassigned) [Example 58, (l)-N-[3-(4-(4'-(3-N,N-Dimethylamino-1-hydroxypropyl)phenyl)phenyl)-2-oxooxazolidin-5-ylmethyl]acetamide]
- ED50 [3, 4]: 13.8 mg/kg
- ED50 [3, 5]: 2 mg/kg
- MIC [1]: 1 µg/mL (≈ 2.43 µM)
- MIC [2]: > 128 µg/mL

SMILES: CC(=O)NC[C@H]1CN(c2ccc(-c3cccc(N(C)C)c3)cc2)C(=O)O1 [Example 74]
- ED50 [3, 5]: 17.1 mg/kg
- MIC [1]: 8 µg/mL (≈ 22.6 µM)
- MIC [2]: > 128 µg/mL

SMILES: CCN(CC)Cc1ccc(-c2ccc(N3C[C@H](CNC(C)=O)OC3=O)cc2)cc1 [Example 43, (l)-N-[3-(4-(4'-diethylaminomethylphenyl)phenyl)-2-oxooxazolidin-5-ylmethyl]acetamide]
- ED50 [3, 4]: 6.4 mg/kg
- ED50 [3, 5]: 3.7 mg/kg
- MIC [1]: 4 µg/mL (≈ 10.1 µM)
- MIC [2]: > 128 µg/mL

SMILES: CC(=O)NC[C@H]1CN(c2ccc(-c3ccc(I)cc3)cc2)C(=O)O1 [Example 20, (l)-N-[3-(4-(4'-Iodophenyl)phenyl)-2-oxooxazolidin-5-ylmethyl]acetamide]
- ED50 [3, 4]: > 90 mg/kg
- ED50 [3, 5]: > 90 mg/kg
- MIC [1]: 8 µg/mL (≈ 18.3 µM)
- MIC [2]: > 128 µg/mL

SMILES: CC(=O)NC[C@H]1CN(c2ccc(-c3cccc([N+](=O)[O-])c3)cc2)C(=O)O1 [Example 119]
- ED50 [3, 4]: 6.2 mg/kg
- ED50 [3, 5]: 5 mg/kg
- MIC [1]: < 0.13 µg/mL
- MIC [2]: > 128 µg/mL

SMILES: CC(=O)NC[C@H]1CN(c2ccc(-c3ccc(C(O)CCN4CCOCC4)cc3)cc2)C(=O)O1 (single isomer, unassigned) [Example 59, (l)-N-[3-(4-(4'-(1-hydroxy-3-(4-morpholinyl)propyl)phenyl)phenyl)-2-oxooxazolidin-5-ylmethyl]acetamide]
- ED50 [3, 4]: 7 mg/kg
- ED50 [3, 5]: 2.7 mg/kg
- MIC [1]: 2 µg/mL (≈ 4.41 µM)
- MIC [2]: > 128 µg/mL

SMILES: CC(=O)NC[C@H]1CN(c2ccc(-c3ccc(C(C)O)cc3)cc2)C(=O)O1 (single isomer, unassigned) [Example 27, (l)-N-[3-(4-(4'-(1-Hydroxyethyl)phenyl)phenyl)-2-oxooxazolidin-5-ylmethyl]acetamide]
- ED50 [3, 4]: 6.6 mg/kg
- ED50 [3, 5]: 7.6 mg/kg
- MIC [1]: 0.5 µg/mL (≈ 1.41 µM)
- MIC [2]: > 128 µg/mL

SMILES: CC(=O)NC[C@H]1CN(c2ccc(-c3cnco3)cc2)C(=O)O1 [Example 136]
- ED50 [3, 4]: 14.8 mg/kg
- ED50 [3, 5]: 51.9 mg/kg
- MIC [1]: 1 µg/mL (≈ 3.32 µM)
- MIC [2]: > 128 µg/mL

SMILES: CC(=O)NC[C@H]1CN(c2ccc(-c3ccc(C(C)=NO)cc3)cc2)C(=O)O1 [Example 22, (l)-N-[3-(4-(4'-(1-Hydroxyiminoethyl)phenyl)phenyl)-2-oxooxazolidin-5-ylmethyl]acetamide]
- ED50 [3, 4]: > 90 mg/kg
- ED50 [3, 5]: > 90 mg/kg
- MIC [1]: 0.25 µg/mL (≈ 0.68 µM)
- MIC [2]: > 128 µg/mL

SMILES: CC(=O)NC[C@H]1CN(c2ccc(-c3ccc(C(C)=O)cc3)cc2)C(=O)O1 [Example 4, (l)-N-[3-(4-(4'-Acetylphenyl)phenyl)-2-oxooxazolidin-5-ylmethyl]acetamide]
- ED50 [3, 4]: 22 mg/kg
- ED50 [3, 5]: 39.7 mg/kg
- MIC [1]: 0.5 µg/mL (≈ 1.42 µM)
- MIC [2]: > 128 µg/mL

SMILES: CC(=O)NC[C@H]1CN(c2ccc(-c3ccncc3)cc2)C(=O)O1 [Example 85, (l)-N-[3-(4-(4-Pyridyl)phenyl)-2-oxooxazolidin-5-ylmethyl]acetamide]
- ED50 [3, 4]: 1.3 mg/kg
- ED50 [3, 5]: 0.5 mg/kg
- MIC [1]: < 0.13 µg/mL
- MIC [2]: > 128 µg/mL

SMILES: CC(=O)NC[C@H]1CN(c2ccc(-c3ccc(C(=O)C(C)CN4CCN(C)CC4)cc3)cc2)C(=O)O1 (stereo partly shown) [Example 62]
- ED50 [3, 4]: 51.9 mg/kg
- ED50 [3, 5]: 10 mg/kg
- MIC [1]: 2 µg/mL (≈ 4.18 µM)
- MIC [2]: > 128 µg/mL

SMILES: CC(=O)NC[C@H]1CN(c2ccc(-c3ccc([S+](C)[O-])cc3)cc2)C(=O)O1 (single isomer, unassigned) [Example 68, (l)-N-[3-(4-(4'-methylsulfinylphenyl)phenyl)-2-oxooxazolidin-5-ylmethyl]acetamide]
- ED50 [3, 4]: 2.2 mg/kg
- ED50 [3, 5]: 0.7 mg/kg
- MIC [1]: 0.25 µg/mL (≈ 0.671 µM)
- MIC [2]: > 128 µg/mL

SMILES: CC(=O)NC[C@H]1CN(c2ccc(-c3ccccc3)cc2)C(=O)O1 [Example 3, (l)-N-[3-(4-Phenylphenyl)-2-oxooxazolidin-5-ylmethyl]acetamide]
- ED50 [3, 4]: 2.9 mg/kg
- ED50 [3, 5]: 2 mg/kg
- MIC [1]: 0.5 µg/mL (≈ 1.61 µM)
- MIC [2]: > 128 µg/mL

SMILES: CC(=O)NC[C@H]1CN(c2ccc(-c3ccc(C(C)NN4CCN(C)CC4)cc3)cc2)C(=O)O1 (single isomer, unassigned) [Example 26, (l)-N-[3-(4-(4'-(1-(4-Methylpiperazinylamino)ethyl))phenyl)phenyl-2-oxooxazolidin-5-ylmethyl]acetamide]
- MIC [1]: 1 µg/mL (≈ 2.21 µM)
- MIC [2]: > 128 µg/mL

SMILES: CC(=O)NC[C@H]1CN(c2ccc(-c3ccc(OCCN(C)C)cc3)cc2)C(=O)O1 [Example 66, (l)-N-[3-(4-(4'-N,N-Dimethylaminoethyloxyphenyl)phenyl)-2-oxooxazolidin-5-ylmethyl]acetamide]
- MIC [1]: 0.5 µg/mL (≈ 1.26 µM)
- MIC [2]: > 128 µg/mL

SMILES: CCCCCN(CCCCC)Cc1ccc(-c2ccc(N3C[C@H](CNC(C)=O)OC3=O)cc2)cc1 [Example 47]
- MIC [1]: 0.5 µg/mL (≈ 1.04 µM)
- MIC [2]: > 128 µg/mL

SMILES: CC(=O)NCC1CN(c2ccc(-c3ccc(N(C)C)cc3)cc2)C(=O)O1 (stereo not shown) [Example 115]
- MIC [1]: 16 µg/mL (≈ 45.3 µM)
- MIC [2]: > 128 µg/mL

SMILES: CCCCCCCCN=Cc1ccc(-c2ccc(N3C[C@H](CNC(C)=O)OC3=O)cc2)cc1 [Example 48]
- MIC [1]: < 0.13 µg/mL
- MIC [2]: > 128 µg/mL

SMILES: CC(=O)NC[C@H]1CN(c2ccc(-c3ccc(C(C)OC(=O)CCC(=O)O)cc3)cc2)C(=O)O1 (stereo partly shown) [Example 30]
- ED50 ([3]; Subcutaneous Administration, 10080 min): 9.8 mg/kg
- Minimum Inhibitory Concentration [1]: 4 µg/mL

SMILES: CC(=O)NC[C@H]1CN(c2ccc(-c3ccc(C(=O)CC(C)(C)C(=O)O)cc3)cc2)C(=O)O1 [Example 10]
- MIC [1]: 0.5 µg/mL (≈ 1.14 µM)
- MIC [2]: > 128 µg/mL
